Laboratory results taken from patent US20170314077A1, “SLFN11 AS BIOMARKER FOR AML” (BERGENBIO AS, priority 2014, published 2017).
“Also recorded” adds a separate entry of the source.

What was measured:
[1] = test system: pAkt; test: MOLM13 systemic xenograft model: biomarker flow cytometry in CD33-positive cells, pAkt; type: in vivo, mice; details: 50 mg/kg for 4 days
Description: (§1) Material from an in vivo MOLM13 systemic model was also evaluated by flow cytometry. Expression of the previously evaluated biomarkers was examined in cells isolated from bone marrows and spleens of animals with systemic AML disease (MOLM13, inoculated for 7 days prior to treatment) treated with BGB324 at 50 mg/kg for 4 days.
(§2) Cells isolated from spleens and bone marrows were assessed for phosphorylation of Erk, PLCγ1 and Akt, and expression of PHGDH and SLFN11. The samples were also co-stained with CD33, and biomarker expression was only evaluated in CD33-positive cells.

[2] = test system: SLFN11 expression in Mv4-11 cells; test: Flow cytometry of total SLFN11 in Mv4-11 cells after long-term treatment; type: cell-based, human
Description: (§3) Live cells were centrifuged at 300 g for 5 minutes, washed once with PBS and centrifuged again. Cells were then fixed in 4% PFA in PBS for 10 minutes at 37° C., and resuspended in PBS. Unless processed immediately, samples were at this point stored in PBS at 4° C. (up to three weeks) or at −80° C. (for long-term storage). If intracellular epitopes were stained, cells were permebealized in 90% MeOH for 30 minutes on ice. Unless processed immediately, samples were also be stored in 90% MeOH at −20° C. for up to two months.
(§4) Cells (150-200 000 per sample) were washed 1× in PBS and incubated in blocking buffer; (PBS+0.5% BSA) for 15 minutes at room temperature. Thereafter, cells were incubated with primary mouse-anti-human SLFN11 Ab at the indicated dilutions in incubation buffer (IB, PBS+0.5% BSA) for 1 hour at room temperature. Cells were then washed 3× with IB and incubated with secondary AB (conjugated to a fluorescent flurophore) at 1:1000 dilution in IB for 30 minutes at room temperature. Finally, cells were washed 3× in IB and resuspended in PBS. For costaining experiments, cells were subsequently incubated with mouse-anti-human Axl Ab (1H12-A647 conjugated Ab) diluted 1:3000 in IB. Cells were analyzed immediately, or stored for up to 24 hours at 4° C. before analysis. […]

[3] = test system: Slfn11 protein; test: Western blot of MV4-11 subcutaneous tumor xenograft lysates; type: in vivo, mice; details: MV4-11 xenografts
Description: (§5) For western blot analysis, cells were lysed on ice using NP-40 lysis buffer with protease- and phosphatase inhibitors. Total protein concentration in lysates was measured using a BCA protein assay kit following the manufacturers instructions. 10% NuPAGE® Bis-Tris precast gels were loaded with 30-50 μg of protein in each well diluted in sample buffer and antioxidant. A 1:1 mix of MagicMark™ XP Western Protein Standard (Invitrogen) and SeeBlue® Plus 2 Pre-Stained Standard was used as protein standard. Gels were run at 50V for 20 min, then at 100V for 1 h30 min. Blotting was done on ice for 1 h 30 min at 100V onto PVDF (pre-activated with MeOH) or nitrocellulose membranes. Membranes were washed in TBS-0.1% Tween-20 (TBS-T), and blocked in TBS-T 5% BSA for at least 1 h at RT. Primary antibody was added at 1:1000 in TBS-T 5% BSA (rabbit-anti-actin Ab was added at 1:2000, rabbit anti-GAPDH Ab was added at 1:3000) in TBS-T 5% BSA, and membranes were incubated over night at 4° C. Membranes were then washed 3× in TBS-T, and incubated in HRP-conjugated secondary antibody at 1:5000 dilution in TBS-T 5% milk for 45 min at RT. Membranes were developed for 1 min using ECL-reagents and imaged with chemiluminescence using a Molecular Imager ChemiDoc™ XRS (BioRad).
In these studies, mice had been treated with BGB324 25 mg/kg BID and 50 mg/kg BID 2-5 cycle for 14 days, or with a single dose 100 mg/kg (tumors harvested 6 h after treatment).
Since Slfn11 was reduced in only one of two parallel tumor samples after a single treatment, it was decided to examine more lysates from Study 1 by western blot. In this study, mice with subcutaneous MV4-11 tumor xenografts were treated with a single low (50 mg/kg) or high (100 mg/kg) dose of BGB324, and tumors were harvested at different time points, from 4 hours up to 72 hours after treatment. […] Thus, it appears that Slfn11 is reduced in MV4-11 xenografts within 24-72 hours (depending on the drug concentration) after treatment with a single dose of BGB324. The effect of BGB324 on Slfn11 expression in these tumors appears to be long-lasting, as the protein level stays low 72 hours after treatment. However, there appear to be individual differences, and more than two parallel samples of each time point need to be examined in order to better understand the dynamics of Slfn11 reduction in MV4-11 xenografts after BGB324-treatment.

[4] = test system: SLFN11 transcript; test: Microarray analysis of subcutaneous Mv4-11 xenograft tumors (study 1 and study 2); type: in vivo, NOD/SCID mice; details: for downregulation of SLFN11 transcript (Rank Product Analysis): study 2, Mv4-11 xenografts, vs control
Description: (§6) To identify new potential biomarkers of BGB324 efficacy in AML, microarray analyses of tumor material from several AML studies were performed. In the first two studies, NOD/SCID mice were implanted with subcutaneous Mv4-11 xenografts. In study 1 the mice were treated with control (vehicle) or a single dose of BGB324 (50 or 100 mg/kg), and sacrificed after 24 hours. In study 2 the mice were treated BID for 14 days with control (vehicle), low (25 mg/kg) or high (50 mg/kg) dose of BGB324 for 14 days. In a third study, MOLM13 cells were injected intravenously into the tail vein of NSG mice. After three days of inoculation, the animals were treated with control (vehicle), high (50 mg/kg) or low (25 mg/kg) dose of BGB324 QD until the vehicle-treated animals were moribund (14 days after initiation of treatment). Development of leukemia was confirmed by flow cytometric analyses of human CD33/CD45-positive cells in the blood, spleens and bone marrow, and RNA isolated from spleens were sent for microarray analysis.
One of the most interesting hits from a Rank Product Analysis of study 2 was a transcript called SLFN11.

[5] = test system: Slfn11 expression in MOLM-13 cells; test: Flow cytometry of Slfn11 expression in MOLM-13 cells after treatment; type: cell-based, human
Description: as §3
Cells (150-200 000 per sample) were washed 1× in PBS and incubated in blocking buffer; (PBS+0.5% BSA) for 15 minutes at room temperature. Thereafter, cells were incubated with primary mouse-anti-human SLFN11 Ab at the indicated dilutions in incubation buffer (IB, PBS+0.5% BSA) for 1 hour at room temperature. Cells were then washed 3× with IB and incubated with secondary AB (conjugated to a fluorescent flurophore) at 1:1000 dilution in IB for 30 minutes at room temperature. Finally, cells were washed 3× in IB and resuspended in PBS. For costaining experiments, cells were subsequently incubated with mouse-anti-human Axl Ab (1H12-A647 conjugated Ab) diluted 1:3000 in IB. Cells were analyzed immediately, or stored for up to 24 hours at 4° C. before analysis.
Analysis of cells was done on a BD LSR Fortessa or a BD C6 Accuri flow cytometer, and further processing was done using FlowJo v.7.6.

[6] = test system: MOLM13 leukemic cells (CD33/CD45-positive); test: MOLM13 systemic xenograft model: CD33/CD45-positive leukemic cells by flow cytometry; type: in vivo, mice; details: 50 mg/kg for 4 days
Description: as §1
Cells harvested from spleens, blood and bone marrows of the animals were stained with anti CD33 and CD45 antibodies, to determine if systemic disease was established. CD33/CD45-positive cells were identified in spleens (around 10-15%), bone marrows (35-40%) and in the blood (2-6%) of the animals, confirming that the disease was established.

[7] = test system: pErk; test: MOLM13 systemic xenograft model: biomarker flow cytometry in CD33-positive cells, pErk; type: in vivo, mice; details: 50 mg/kg for 4 days
Description: as §1, §2

[8] = test system: SLFN11; test: MOLM13 systemic xenograft model: biomarker flow cytometry in CD33-positive cells, SLFN11; type: in vivo, mice; details: bone marrows, 50 mg/kg for 4 days
Description: as §1, §2

[9] = test system: pPLCγ1; test: MOLM13 systemic xenograft model: biomarker flow cytometry in CD33-positive cells, pPLCγ1; type: in vivo, mice; details: 50 mg/kg for 4 days
Description: as §1, §2

[10] = test system: SLFN11 transcript; test: Microarray analysis of spleen RNA, systemic MOLM13 AML model (study 3); type: in vivo, NSG mice; details: study 3, systemic MOLM13, 25 or 50 mg/kg QD, 14 days
Description: as §6

[11] = test system: Slfn11 expression in OCI-AML3 cells; test: Flow cytometry of Slfn11 expression in OCI-AML3 cells after treatment; type: cell-based, human; details: OCI-AML3, treated at IC50-values for 24, 48 and 72 hours
Description: as §3, §4

[12] = test system: SLFN11 expression in Kasumi cells; test: Flow cytometry of total SLFN11 in Kasumi cells after long-term treatment; type: cell-based, human; details: 2.5 μM
Description: as §3, §4

[13] = test system: Slfn11 expression in MOLM-13 cells; test: Western blot of Slfn11 in MOLM-13 cells, increasing doses; type: cell-based, human; details: MOLM-13, 48 hours, increasing doses 0.1 uM to 1.2 uM
Description: as §5

[14] = test system: Slfn11 expression in OCI-M1 cells; test: Flow cytometry of Slfn11 expression in OCI-M1 cells after treatment; type: cell-based, human; details: OCI-M1, treated at IC50-values for 24, 48 and 72 hours
Description: as §3, §4

[15] = test system: PHGDH; test: MOLM13 systemic xenograft model: biomarker flow cytometry in CD33-positive cells, PHGDH; type: in vivo, mice; details: 50 mg/kg for 4 days
Description: as §1, §2

[16] = test system: SLFN11 expression in OCI-AML5 cells; test: Flow cytometry of total SLFN11 in OCI-AML5 cells after long-term treatment; type: cell-based, human; details: OCI-AML5, 2.5 μM
Description: as §3, §4

## Nc1nc(Nc2ccc3c(c2)CC[C@@H](N2CCCC2)CC3)nn1-c1cc2c(nn1)-c1ccccc1CCC2 [BGB324]
[1]; bone marrows
  pAkt change in CD33-positive cells: not significant
[1]; spleens
  pAkt change in CD33-positive cells: not significant
[2]; Mv4-11, 0.1 uM, 72 hours
  total protein expression of SLFN11 (flow cytometry, % of control): significantly reduced
[2]; Mv4-11, 0.3 μM, 24, 48 and 72 hours
  total protein expression of SLFN11 (flow cytometry, % of control): significant reduction
[3]; 25 mg/kg BID and 50 mg/kg BID, 14 days
  Slfn11 protein compared to control levels (western blot): marked reduction
[3]; single dose 100 mg/kg, tumors harvested 6 h after treatment
  Slfn11 protein (western blot): reduced in one of the two parallel samples
[3]; single dose, 72 hours after treatment
  duration of effect on Slfn11 protein level: stays low
[3]; single dose, depending on the drug concentration
  time after single dose within which Slfn11 is reduced: 24 to 72 h
[3]; single high dose 100 mg/kg, 24, 48 and 72 hours after treatment
  Slfn11 protein (western blot): reduction
[3]; single high dose 100 mg/kg, time points earlier than 24 hours (from 4 hours)
  Slfn11 protein (western blot): not at earlier time points
[3]; single low dose 50 mg/kg, 72 hours after treatment
  Slfn11 protein (western blot): slight reduction
[4]; study 1, Mv4-11 xenografts, single dose (50 or 100 mg/kg), sacrificed after 24 hours
  reduction of SLFN11 transcript (Rank Product Analysis): 1.449 fold
[4]; study 2, 25 and 50 mg/kg
  SLFN11 transcript regulation after 14d treatment (in words): highly significant dose-dependent downregulation
[4]; study 2, 14 d treatment, q=0.0
  SLFN11 transcript, SAM (significance of microarray) analysis: reduction of SLFN11 as the most significant (#1) hit
[4]; 25 mg/kg BID for 14 days
  downregulation of SLFN11 transcript (Rank Product Analysis): 1.98 fold
[4]; 50 mg/kg BID for 14 days
  downregulation of SLFN11 transcript (Rank Product Analysis): 3.98 fold
[5]; MOLM13, 0.3 μM, 24, 48 and 72 hours
  total protein expression of SLFN11 (flow cytometry, % of control): significant reduction
[5]; MOLM-13, 48 hours, increasing doses 0.1 uM to 1.2 uM
  SLFN11 expression (flow cytometry): dose-dependent downregulation; also recorded: confirmed
[5]; MOLM-13, treated at IC50-values for 24, 48 and 72 hours
  SLFN11 expression (flow cytometry): marked reduction
[6]; blood
  percentage of leukemic cells (CD33/CD45-positive) vs. vehicle-treated: significantly higher percentage
[6]; bone marrows
  percentage of leukemic cells (CD33/CD45-positive) vs. vehicle-treated: no significant differences
[6]; spleens
  percentage of leukemic cells (CD33/CD45-positive) vs. vehicle-treated: no significant differences
[7]; bone marrows
  pErk in CD33-positive cells: significant reduction
[7]; spleens
  pErk in CD33-positive cells: significant reduction
[8]
  SLFN11 expression in CD33-positive cells: significant reduction
[9]; bone marrows
  pPLCγ1 in CD33-positive cells: significant reduction
[9]; spleens
  pPLCγ1 in CD33-positive cells: significant reduction
[10]
  SLFN11 transcript regulation in spleens: not among the transcripts that were significantly downregulated
[11]
  SLFN11 expression (flow cytometry): marked reduction
[12]; 24 and 48 hours
  total protein expression of SLFN11 (flow cytometry, % of control): no significant differences
[12]; 72 hours
  total protein expression of SLFN11 (flow cytometry, % of control): significant increase
[13]
  Slfn11 expression (western blot): dose-dependent downregulation; also recorded: dose-dependent reduction
[13]; listed as BGB324/R428
  Slfn11 expression (western blot): reduced in a dose-dependent manner
[14]
  SLFN11 expression (flow cytometry): marked reduction
[15]; bone marrows
  PHGDH expression in CD33-positive cells: significant reduction
[15]; spleens
  PHGDH expression in CD33-positive cells: significant reduction
[16]; 24 and 48 hours
  total protein expression of SLFN11 (flow cytometry, % of control): no significant differences
[16]; 72 hours
  total protein expression of SLFN11 (flow cytometry, % of control): significant increase
